# Article PMC8534050, “Discovery of a Potent and Highly Isoform-Selective Inhibitor of the Neglected Ribosomal Protein S6 Kinase Beta 2 (S6K2)” (Cancers, 2021)
# Tests used:
# DAPK1 = target: T1, DAPK1 (Homo sapiens, UniProt P53355); assay: DSF thermal shift assay; type: binding; conditions: DAPK1; inhibitor 10 μM, protein 2 μM; read-out: ΔTm
# T1 construct: purchased in-house DSF (thermal shift) panel per Fedorov et al
# Protocol: (§1) Differences in the melting temperature (ΔTm) were measured as described by Fedorov et al.. Purified proteins were buffered in 25 mM HEPES (pH 7.5), 500 mM NaCl and were assayed in a 384-well plate with a final protein concentration of 2 μM in 10 μL assay volume. Inhibitors were added to a final concentration of 10 μM using an ECHO 550 acoustic dispenser (Labcyte, San José, CA, USA). As a fluorescence probe, SYPRO-Orange (Molecular Probes, Eugene, OR, USA) was added in a 1:5000 dilution. Filters for excitation and emission were set to 465 nm and 590 nm, respectively. The temperature was increased from 25 °C with 3 °C/min to a final temperature of 95 °C, while scanning, using the QuantStudio5 (Applied Biosystems, Waltham, MA, USA). Data were analyzed through Boltzmann equation in the Protein Thermal Shift software (Applied Biosystems, Waltham, MA, USA). Samples were measured in technical duplicates.
# DCAMKL1 = target: T2, DCAMKL1 (Homo sapiens, UniProt O15075); assay: DSF thermal shift assay; type: binding; conditions: DCAMKL1; inhibitor 10 μM, protein 2 μM; read-out: ΔTm
# T2 construct: purchased in-house DSF (thermal shift) panel per Fedorov et al
# Protocol: as §1
# STK10 = target: T3, STK10 (Homo sapiens, UniProt O94804); assay: DSF thermal shift assay; type: binding; conditions: STK10; inhibitor 10 μM, protein 2 μM; read-out: ΔTm
# T3 construct: purchased in-house DSF (thermal shift) panel per Fedorov et al
# Protocol: as §1
# MAPK6 = target: T4, MAPK6 (Homo sapiens, UniProt Q16659); assay: DSF thermal shift assay; type: binding; conditions: MAPK6; inhibitor 10 μM, protein 2 μM; read-out: ΔTm
# T4 construct: purchased in-house DSF (thermal shift) panel per Fedorov et al
# T4 sequence (Q16659 whole entry): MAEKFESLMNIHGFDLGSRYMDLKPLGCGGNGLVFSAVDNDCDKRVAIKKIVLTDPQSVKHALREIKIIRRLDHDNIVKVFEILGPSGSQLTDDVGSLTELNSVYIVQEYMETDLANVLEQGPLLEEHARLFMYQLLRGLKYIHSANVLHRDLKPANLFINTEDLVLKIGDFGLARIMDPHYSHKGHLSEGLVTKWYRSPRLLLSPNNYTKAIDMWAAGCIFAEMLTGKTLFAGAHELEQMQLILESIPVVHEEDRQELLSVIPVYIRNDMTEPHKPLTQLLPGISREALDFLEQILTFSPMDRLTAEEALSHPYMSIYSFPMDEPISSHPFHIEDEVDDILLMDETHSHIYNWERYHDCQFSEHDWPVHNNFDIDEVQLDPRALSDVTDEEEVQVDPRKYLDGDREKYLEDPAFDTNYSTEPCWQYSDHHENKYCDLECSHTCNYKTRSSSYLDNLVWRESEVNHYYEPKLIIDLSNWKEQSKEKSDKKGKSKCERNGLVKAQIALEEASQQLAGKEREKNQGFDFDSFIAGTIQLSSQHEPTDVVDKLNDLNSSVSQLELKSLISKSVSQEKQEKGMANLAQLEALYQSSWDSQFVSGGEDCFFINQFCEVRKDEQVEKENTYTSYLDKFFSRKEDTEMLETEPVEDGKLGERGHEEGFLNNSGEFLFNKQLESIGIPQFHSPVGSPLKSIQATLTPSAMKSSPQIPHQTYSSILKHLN
# Protocol: as §1
# NEK2 = target: T5, NEK2 (Homo sapiens, UniProt P51955); assay: DSF thermal shift assay; type: binding; conditions: NEK2; inhibitor 10 μM, protein 2 μM; read-out: ΔTm
# T5 construct: purchased in-house DSF (thermal shift) panel per Fedorov et al
# T5 sequence (P51955 whole entry): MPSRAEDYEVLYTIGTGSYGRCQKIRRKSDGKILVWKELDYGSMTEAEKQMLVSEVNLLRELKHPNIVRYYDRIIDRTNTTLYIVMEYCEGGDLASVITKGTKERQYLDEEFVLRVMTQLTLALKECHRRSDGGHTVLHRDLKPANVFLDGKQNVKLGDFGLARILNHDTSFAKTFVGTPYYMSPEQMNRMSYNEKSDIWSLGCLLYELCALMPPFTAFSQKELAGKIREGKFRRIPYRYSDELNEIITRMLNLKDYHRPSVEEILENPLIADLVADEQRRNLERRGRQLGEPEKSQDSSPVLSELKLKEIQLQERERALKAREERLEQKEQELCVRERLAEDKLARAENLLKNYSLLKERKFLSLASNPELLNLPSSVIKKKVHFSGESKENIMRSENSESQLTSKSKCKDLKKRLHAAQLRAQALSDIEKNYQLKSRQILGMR
# Protocol: as §1
# OSR1 = target: T6, OSR1 (Homo sapiens, UniProt O95747); assay: DSF thermal shift assay; type: binding; conditions: OSR1; inhibitor 10 μM, protein 2 μM; read-out: ΔTm
# T6 construct: purchased in-house DSF (thermal shift) panel per Fedorov et al
# T6 sequence (O95747 whole entry): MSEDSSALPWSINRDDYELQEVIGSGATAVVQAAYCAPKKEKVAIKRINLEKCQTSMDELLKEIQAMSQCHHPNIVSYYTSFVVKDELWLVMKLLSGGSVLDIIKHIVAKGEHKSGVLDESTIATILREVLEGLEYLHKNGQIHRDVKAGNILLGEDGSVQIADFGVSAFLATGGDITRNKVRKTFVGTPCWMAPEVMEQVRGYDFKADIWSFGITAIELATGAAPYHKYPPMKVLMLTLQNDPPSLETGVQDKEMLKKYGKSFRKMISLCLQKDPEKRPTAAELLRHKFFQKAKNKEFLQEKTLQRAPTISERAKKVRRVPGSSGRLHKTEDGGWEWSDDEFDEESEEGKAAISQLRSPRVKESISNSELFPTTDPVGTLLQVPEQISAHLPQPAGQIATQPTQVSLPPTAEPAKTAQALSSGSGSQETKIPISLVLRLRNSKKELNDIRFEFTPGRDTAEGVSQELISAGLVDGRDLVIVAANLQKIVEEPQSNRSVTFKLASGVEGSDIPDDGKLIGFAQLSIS
# Protocol: as §1
# MERTK = target: T7, MERTK (Homo sapiens, UniProt Q12866); assay: DSF thermal shift assay; type: binding; conditions: MERTK; inhibitor 10 μM, protein 2 μM; read-out: ΔTm
# T7 construct: purchased in-house DSF (thermal shift) panel per Fedorov et al
# Protocol: as §1
# [1] = Aqueous degradation at pH 10.2; type: physicochemical; conditions: sodium tetraborate buffer (28 mM), no nucleophile, read-out: t1/2 of aqueous degradation (converted)
# Protocol: The Nα-acetyl lysine stability assay was performed in analogy to the GSH stability assay by substituting GSH with Nα-acetyl lysine at pH 7.4 and additionally at pH 10.2 to mimic the pKa depression often observed for biologically relevant lysines. PBS-buffer was substituted with a sodium tetraborate buffer (28 mM) for experiments at pH 10.2.
# 4. Nα-Acetyl Lysine Stability Assay
# NEK1 = target: T8, NEK1 (Homo sapiens, UniProt Q96PY6); assay: DSF thermal shift assay; type: binding; conditions: inhibitor 10 μM, protein 2 μM
# T8 construct: purchased in-house DSF (thermal shift) panel per Fedorov et al
# Protocol: as §1, with “Filters for excitation and emission were set to 465 nm and 590 nm, respectively. The temperature was increased from 25 °C with 3 °C/min to a final temperature of 95 °C, while scanning, using the QuantStudio5 (Applied Biosystems, Waltham, MA, USA).” left out
# AURKB = target: T9, AURKB (Homo sapiens, UniProt Q96GD4); assay: DSF thermal shift assay; type: binding; conditions: inhibitor 10 μM, protein 2 μM
# T9 construct: purchased in-house DSF (thermal shift) panel per Fedorov et al
# T9 sequence (Q96GD4 whole entry): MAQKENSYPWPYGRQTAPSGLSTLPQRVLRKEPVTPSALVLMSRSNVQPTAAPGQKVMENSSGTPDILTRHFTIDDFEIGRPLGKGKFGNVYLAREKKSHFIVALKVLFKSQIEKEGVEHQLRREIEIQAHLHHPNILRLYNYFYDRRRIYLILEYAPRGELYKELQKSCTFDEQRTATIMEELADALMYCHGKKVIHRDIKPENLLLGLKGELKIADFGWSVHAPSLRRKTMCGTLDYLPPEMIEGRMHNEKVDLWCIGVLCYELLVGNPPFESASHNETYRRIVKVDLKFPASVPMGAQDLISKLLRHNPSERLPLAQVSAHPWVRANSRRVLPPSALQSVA
# Protocol: as §1, with “Filters for excitation and emission were set to 465 nm and 590 nm, respectively. The temperature was increased from 25 °C with 3 °C/min to a final temperature of 95 °C, while scanning, using the QuantStudio5 (Applied Biosystems, Waltham, MA, USA).” left out
# RIOK2 = target: T10, RIOK2 (Homo sapiens, UniProt Q9BVS4); assay: DSF thermal shift assay; type: binding; conditions: inhibitor 10 μM, protein 2 μM
# T10 construct: purchased in-house DSF (thermal shift) panel per Fedorov et al; IC50 follow-up at Reaction Biology Corp
# Protocol: as §1, with “Filters for excitation and emission were set to 465 nm and 590 nm, respectively. The temperature was increased from 25 °C with 3 °C/min to a final temperature of 95 °C, while scanning, using the QuantStudio5 (Applied Biosystems, Waltham, MA, USA).” left out
# MELK = target: T11, MELK (Homo sapiens, UniProt Q14680); assay: DSF thermal shift assay; type: binding; conditions: inhibitor 10 μM, protein 2 μM
# T11 construct: purchased in-house DSF (thermal shift) panel per Fedorov et al
# Protocol: as §1, with “Filters for excitation and emission were set to 465 nm and 590 nm, respectively. The temperature was increased from 25 °C with 3 °C/min to a final temperature of 95 °C, while scanning, using the QuantStudio5 (Applied Biosystems, Waltham, MA, USA).” left out
# MAP2K1 = target: T12, MAP2K1 (Homo sapiens, UniProt Q02750); assay: DSF thermal shift assay; type: binding; conditions: inhibitor 10 μM, protein 2 μM
# T12 construct: purchased in-house DSF (thermal shift) panel per Fedorov et al
# T12 sequence (Q02750 whole entry): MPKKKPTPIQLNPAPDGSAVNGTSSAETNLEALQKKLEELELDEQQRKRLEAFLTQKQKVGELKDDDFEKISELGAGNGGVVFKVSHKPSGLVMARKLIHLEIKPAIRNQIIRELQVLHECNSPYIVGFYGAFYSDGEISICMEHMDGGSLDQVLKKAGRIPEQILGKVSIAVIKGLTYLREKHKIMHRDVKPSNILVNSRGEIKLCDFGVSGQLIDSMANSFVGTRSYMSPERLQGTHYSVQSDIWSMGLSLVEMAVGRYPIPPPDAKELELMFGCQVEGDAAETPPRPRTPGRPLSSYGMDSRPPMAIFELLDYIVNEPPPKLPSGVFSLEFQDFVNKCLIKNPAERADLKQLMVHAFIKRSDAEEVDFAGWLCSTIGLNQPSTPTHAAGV
# Protocol: as §1, with “Filters for excitation and emission were set to 465 nm and 590 nm, respectively. The temperature was increased from 25 °C with 3 °C/min to a final temperature of 95 °C, while scanning, using the QuantStudio5 (Applied Biosystems, Waltham, MA, USA).” left out
# CLK3 = target: T13, CLK3 (Homo sapiens, UniProt P49761); assay: DSF thermal shift assay; type: binding; conditions: inhibitor 10 μM, protein 2 μM
# T13 construct: purchased in-house DSF (thermal shift) panel per Fedorov et al
# Protocol: as §1, with “Filters for excitation and emission were set to 465 nm and 590 nm, respectively. The temperature was increased from 25 °C with 3 °C/min to a final temperature of 95 °C, while scanning, using the QuantStudio5 (Applied Biosystems, Waltham, MA, USA).” left out
# RPS6KA1 = target: T14, RPS6KA1 (Homo sapiens, UniProt Q15418); assay: DSF thermal shift assay; type: binding; conditions: inhibitor 10 μM, protein 2 μM
# T14 construct: purchased in-house DSF (thermal shift) panel per Fedorov et al
# Protocol: as §1, with “Filters for excitation and emission were set to 465 nm and 590 nm, respectively. The temperature was increased from 25 °C with 3 °C/min to a final temperature of 95 °C, while scanning, using the QuantStudio5 (Applied Biosystems, Waltham, MA, USA).” left out
# MAP2K4 = target: T15, MAP2K4 (Homo sapiens, UniProt P45985); assay: DSF thermal shift assay; type: binding; conditions: inhibitor 10 μM, protein 2 μM
# T15 construct: purchased in-house DSF (thermal shift) panel per Fedorov et al
# T15 sequence (P45985 whole entry): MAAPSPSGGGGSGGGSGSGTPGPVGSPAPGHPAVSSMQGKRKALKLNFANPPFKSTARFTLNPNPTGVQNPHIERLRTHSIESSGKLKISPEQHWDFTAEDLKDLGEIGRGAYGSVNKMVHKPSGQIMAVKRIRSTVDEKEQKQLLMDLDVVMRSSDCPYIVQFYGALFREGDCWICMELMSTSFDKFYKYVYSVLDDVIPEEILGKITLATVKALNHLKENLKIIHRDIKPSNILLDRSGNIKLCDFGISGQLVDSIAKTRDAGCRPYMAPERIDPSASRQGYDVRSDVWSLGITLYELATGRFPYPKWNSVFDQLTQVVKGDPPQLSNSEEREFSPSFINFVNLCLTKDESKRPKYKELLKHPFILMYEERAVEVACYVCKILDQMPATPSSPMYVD
# Protocol: as §1, with “Filters for excitation and emission were set to 465 nm and 590 nm, respectively. The temperature was increased from 25 °C with 3 °C/min to a final temperature of 95 °C, while scanning, using the QuantStudio5 (Applied Biosystems, Waltham, MA, USA).” left out
# BRPF1 = target: T16, BRPF1 (Homo sapiens, UniProt P55201); assay: DSF thermal shift assay; type: binding; conditions: inhibitor 10 μM, protein 2 μM
# T16 construct: purchased in-house DSF (thermal shift) panel per Fedorov et al; IC50 follow-up at Reaction Biology Corp
# Protocol: as §1, with “Filters for excitation and emission were set to 465 nm and 590 nm, respectively. The temperature was increased from 25 °C with 3 °C/min to a final temperature of 95 °C, while scanning, using the QuantStudio5 (Applied Biosystems, Waltham, MA, USA).” left out
# MAPK10 = target: T17, MAPK10 (Homo sapiens, UniProt P53779); assay: DSF thermal shift assay; type: binding; conditions: inhibitor 10 μM, protein 2 μM
# T17 construct: purchased in-house DSF (thermal shift) panel per Fedorov et al
# Protocol: as §1, with “Filters for excitation and emission were set to 465 nm and 590 nm, respectively. The temperature was increased from 25 °C with 3 °C/min to a final temperature of 95 °C, while scanning, using the QuantStudio5 (Applied Biosystems, Waltham, MA, USA).” left out
# ULK3 = target: T18, ULK3 (Homo sapiens, UniProt Q6PHR2); assay: DSF thermal shift assay; type: binding; conditions: inhibitor 10 μM, protein 2 μM
# T18 construct: purchased in-house DSF (thermal shift) panel per Fedorov et al
# Protocol: as §1, with “Filters for excitation and emission were set to 465 nm and 590 nm, respectively. The temperature was increased from 25 °C with 3 °C/min to a final temperature of 95 °C, while scanning, using the QuantStudio5 (Applied Biosystems, Waltham, MA, USA).” left out
# FGFR1 = target: T19, FGFR1 (Homo sapiens, UniProt P11362); assay: DSF thermal shift assay; type: binding; conditions: inhibitor 10 μM, protein 2 μM
# T19 construct: purchased in-house DSF (thermal shift) panel per Fedorov et al; IC50 follow-up at Reaction Biology Corp
# T19 sequence (P11362 22-822): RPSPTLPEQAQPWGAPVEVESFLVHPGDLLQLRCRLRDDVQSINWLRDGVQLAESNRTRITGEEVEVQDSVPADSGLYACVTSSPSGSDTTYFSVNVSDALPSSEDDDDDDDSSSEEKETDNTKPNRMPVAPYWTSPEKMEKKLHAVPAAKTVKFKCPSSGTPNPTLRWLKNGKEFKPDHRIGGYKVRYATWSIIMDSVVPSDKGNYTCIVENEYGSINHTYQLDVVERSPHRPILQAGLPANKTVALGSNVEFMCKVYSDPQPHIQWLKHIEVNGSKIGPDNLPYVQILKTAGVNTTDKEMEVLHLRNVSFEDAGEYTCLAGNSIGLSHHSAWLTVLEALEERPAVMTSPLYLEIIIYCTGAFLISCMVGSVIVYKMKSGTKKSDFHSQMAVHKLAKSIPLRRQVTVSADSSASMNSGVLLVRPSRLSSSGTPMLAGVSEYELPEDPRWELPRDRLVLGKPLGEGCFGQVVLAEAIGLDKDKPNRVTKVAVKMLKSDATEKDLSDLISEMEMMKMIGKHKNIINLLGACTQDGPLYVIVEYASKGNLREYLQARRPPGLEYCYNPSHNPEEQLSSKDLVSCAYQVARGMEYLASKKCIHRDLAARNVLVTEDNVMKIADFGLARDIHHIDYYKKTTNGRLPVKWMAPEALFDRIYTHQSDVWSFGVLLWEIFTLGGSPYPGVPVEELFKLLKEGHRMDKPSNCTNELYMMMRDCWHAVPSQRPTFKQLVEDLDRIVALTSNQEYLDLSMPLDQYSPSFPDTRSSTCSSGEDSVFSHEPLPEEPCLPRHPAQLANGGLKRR
# Protocol: as §1, with “Filters for excitation and emission were set to 465 nm and 590 nm, respectively. The temperature was increased from 25 °C with 3 °C/min to a final temperature of 95 °C, while scanning, using the QuantStudio5 (Applied Biosystems, Waltham, MA, USA).” left out
# PKMYT1 = target: T20, PKMYT1 (Homo sapiens, UniProt Q99640); assay: DSF thermal shift assay; type: binding; conditions: inhibitor 10 μM, protein 2 μM
# T20 construct: purchased in-house DSF (thermal shift) panel per Fedorov et al; IC50 follow-up at Reaction Biology Corp
# Protocol: as §1, with “Filters for excitation and emission were set to 465 nm and 590 nm, respectively. The temperature was increased from 25 °C with 3 °C/min to a final temperature of 95 °C, while scanning, using the QuantStudio5 (Applied Biosystems, Waltham, MA, USA).” left out
# MAPKAPK3 = target: T21, MAPKAPK3 (Homo sapiens, UniProt Q16644); assay: HotSpot kinase assay (Reaction Biology); type: biochemical; conditions: five-point singlicate, max 5 μM
# T21 construct: purchased Reaction Biology Corp
# Protocol: (§2) The provided IC50 values were measured using the HotSpot^TM Kinase Profiling assay and conducted at Reaction Biology Corp. in their facilities in Malvern, PA, USA.
# FGFR4 = target: T22, FGFR4 (Homo sapiens, UniProt P22455); assay: HotSpot kinase assay (Reaction Biology); type: biochemical; conditions: five-point singlicate
# T22 construct: purchased Reaction Biology Corp
# T22 sequence (P22455 22-802): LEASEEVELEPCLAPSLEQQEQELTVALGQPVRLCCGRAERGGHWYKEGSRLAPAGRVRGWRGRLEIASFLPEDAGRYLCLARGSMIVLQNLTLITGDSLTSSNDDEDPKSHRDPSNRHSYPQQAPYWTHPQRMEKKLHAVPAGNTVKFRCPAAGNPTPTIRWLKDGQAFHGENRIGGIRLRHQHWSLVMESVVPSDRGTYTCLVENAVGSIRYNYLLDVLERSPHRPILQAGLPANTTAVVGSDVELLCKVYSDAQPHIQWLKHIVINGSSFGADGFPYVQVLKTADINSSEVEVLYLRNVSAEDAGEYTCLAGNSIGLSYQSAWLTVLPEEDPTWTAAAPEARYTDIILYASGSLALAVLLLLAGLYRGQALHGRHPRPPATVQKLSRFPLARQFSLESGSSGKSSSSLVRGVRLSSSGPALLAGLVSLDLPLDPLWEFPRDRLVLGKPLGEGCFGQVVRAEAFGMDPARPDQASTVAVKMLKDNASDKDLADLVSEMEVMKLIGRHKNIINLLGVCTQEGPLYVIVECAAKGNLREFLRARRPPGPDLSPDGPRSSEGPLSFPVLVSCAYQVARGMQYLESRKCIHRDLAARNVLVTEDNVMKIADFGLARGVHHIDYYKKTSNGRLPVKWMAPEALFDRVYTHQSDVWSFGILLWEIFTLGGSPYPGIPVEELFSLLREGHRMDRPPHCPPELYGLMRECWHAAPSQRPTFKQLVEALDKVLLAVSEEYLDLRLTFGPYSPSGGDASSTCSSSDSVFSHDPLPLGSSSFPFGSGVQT
# Protocol: as §2
# S6K1 = target: T23, S6K1 (Homo sapiens, UniProt P23443); assay: HotSpot kinase assay (Reaction Biology); type: biochemical
# T23 construct: purchased Reaction Biology Corp
# T23 sequence (P23443 whole entry): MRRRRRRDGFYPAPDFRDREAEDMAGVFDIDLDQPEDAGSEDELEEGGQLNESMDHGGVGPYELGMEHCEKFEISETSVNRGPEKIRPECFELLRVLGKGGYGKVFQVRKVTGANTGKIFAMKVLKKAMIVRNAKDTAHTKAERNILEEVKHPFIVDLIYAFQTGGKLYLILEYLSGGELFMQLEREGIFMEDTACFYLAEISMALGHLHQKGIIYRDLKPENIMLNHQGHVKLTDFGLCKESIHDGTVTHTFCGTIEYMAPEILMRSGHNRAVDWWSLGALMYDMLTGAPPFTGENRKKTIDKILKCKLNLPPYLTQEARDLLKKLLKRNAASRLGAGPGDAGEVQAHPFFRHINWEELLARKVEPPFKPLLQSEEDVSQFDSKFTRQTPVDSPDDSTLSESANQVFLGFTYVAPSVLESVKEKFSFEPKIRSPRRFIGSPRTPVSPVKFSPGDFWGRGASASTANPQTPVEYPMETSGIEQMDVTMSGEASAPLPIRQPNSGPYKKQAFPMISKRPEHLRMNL
# Protocol: as §2
# S6K2 = target: T24, S6K2 (Homo sapiens, UniProt Q9UBS0); assay: HotSpot kinase assay (Reaction Biology); type: biochemical; conditions: apparent IC50; five-point; compound 2 triplicate, ± standard deviation
# T24 construct: purchased Reaction Biology Corp
# Protocol: as §2
# TTK = target: T25, TTK (Homo sapiens, UniProt P33981); assay: HotSpot kinase assay (Reaction Biology); type: biochemical; conditions: five-point singlicate, max 5 μM
# T25 construct: purchased Reaction Biology Corp
# Protocol: as §2
# MAPKAPK2 = target: T26, MAPKAPK2 (Homo sapiens, UniProt P49137); assay: HotSpot kinase assay (Reaction Biology); type: biochemical; conditions: five-point singlicate, max 5 μM
# T26 construct: purchased in-house DSF (thermal shift) panel per Fedorov et al; IC50 follow-up at Reaction Biology Corp
# Protocol: as §2
smiles,measurement,setting,value
CCc1cnc(Nc2nc(Cl)ccc2[N+](=O)[O-])nc1N1CCN(Cc2nc3cc(C(F)(F)F)ccc3[nH]2)CC1 [Compound 2],ΔTm at 10 µM,DAPK1,-0.5 °C
same,ΔTm at 10 µM,DCAMKL1,0.2 °C
same,ΔTm at 10 µM,STK10,1.8 °C
same,ΔTm at 10 µM,MAPK6,0.2 °C
same,ΔTm at 10 µM,NEK2,0.1 °C
same,ΔTm at 10 µM,OSR1,0.4 °C
same,ΔTm at 10 µM,MERTK,-0.1 °C
same,half-life,[1],139 h
same,ΔTm at 10 µM,NEK1,-0.7 °C
same,ΔTm at 10 µM,AURKB,0 °C
same,ΔTm at 10 µM,RIOK2,-0.8 °C
same,ΔTm at 10 µM,MELK,0.4 °C
same,ΔTm at 10 µM,MAP2K1,-0.3 °C
same,ΔTm at 10 µM,CLK3,0.1 °C
same,ΔTm at 10 µM,RPS6KA1,0.3 °C
same,ΔTm,MAP2K4,> 2 °C
same,ΔTm at 10 µM,MAP2K4,3 °C
same,ΔTm at 10 µM,BRPF1,0.9 °C
same,ΔTm at 10 µM,MAPK10,0.1 °C
same,ΔTm at 10 µM,ULK3,0.4 °C
same,ΔTm at 10 µM,FGFR1,0.4 °C
same,ΔTm at 10 µM,PKMYT1,-1 °C
same,IC50,MAPKAPK3,> 5000 nM
same,IC50,FGFR4,216 nM
same,IC50,"S6K1; five-point singlicate, max 5 μM",> 5000 nM
same,activity for S6K1,S6K1; maximum tested compound concentration of 5 μM,inactive
same,IC50,S6K2,22 ± 1.6 nM
same,IC50,TTK,> 5000 nM
same,IC50,MAPKAPK2,> 5000 nM
